# Changes are numbered by the printed parent chain.
# Assays:
# [1] = Systemic exposure following oral administration in the rat; details: for AUC0-t: 72 hours sampling; for AUC0-t / Cmax / Dose Normalised AUC0-t / Tmax: mean±SD (n=3); for *Estimated Bioavailability: dose normalised AUC0-t against an IV dose of 0.5 mg/kg
# Description: Systemic exposure of various forms of N-((1r,3r)-3-(4-cyano-3-methoxyphenoxy)-2,2,4,4-tetramethylcyclobutyl)-4-(4-((4-(4-(2,4-dioxotetrahydropyrimidin-1(2H)-yl)-1H-pyrazolo[4,3-c]pyridin-1-yl)piperidin-1-yl)methyl)piperidin-1-yl)-3-fluorobenzamide were assessed following oral administration of 30 mg/kg of a suspension formulation (1% methylcellulose (aq)) or following oral administration of 35 mg/kg of a suspension formulation (100% PEG400) in the male Wistar Han rat. […] The sampling period was 72 hours, and the data is reported in the attached table as mean±SD (n=3).
# [2] = target: T1, Androgen Receptor, LNCaP (AR T878A) (Homo sapiens, UniProt P10275, T878A); assay: Androgen Receptor Degradation-Imaging Assay, LNCaP cell line; assay type: cell-based; details: 16 hours treatment, maximum observed degradation
# T1 construct: endogenous in cells; host or cells: LNCaP
# T1 sequence (P10275 1-920 T878A): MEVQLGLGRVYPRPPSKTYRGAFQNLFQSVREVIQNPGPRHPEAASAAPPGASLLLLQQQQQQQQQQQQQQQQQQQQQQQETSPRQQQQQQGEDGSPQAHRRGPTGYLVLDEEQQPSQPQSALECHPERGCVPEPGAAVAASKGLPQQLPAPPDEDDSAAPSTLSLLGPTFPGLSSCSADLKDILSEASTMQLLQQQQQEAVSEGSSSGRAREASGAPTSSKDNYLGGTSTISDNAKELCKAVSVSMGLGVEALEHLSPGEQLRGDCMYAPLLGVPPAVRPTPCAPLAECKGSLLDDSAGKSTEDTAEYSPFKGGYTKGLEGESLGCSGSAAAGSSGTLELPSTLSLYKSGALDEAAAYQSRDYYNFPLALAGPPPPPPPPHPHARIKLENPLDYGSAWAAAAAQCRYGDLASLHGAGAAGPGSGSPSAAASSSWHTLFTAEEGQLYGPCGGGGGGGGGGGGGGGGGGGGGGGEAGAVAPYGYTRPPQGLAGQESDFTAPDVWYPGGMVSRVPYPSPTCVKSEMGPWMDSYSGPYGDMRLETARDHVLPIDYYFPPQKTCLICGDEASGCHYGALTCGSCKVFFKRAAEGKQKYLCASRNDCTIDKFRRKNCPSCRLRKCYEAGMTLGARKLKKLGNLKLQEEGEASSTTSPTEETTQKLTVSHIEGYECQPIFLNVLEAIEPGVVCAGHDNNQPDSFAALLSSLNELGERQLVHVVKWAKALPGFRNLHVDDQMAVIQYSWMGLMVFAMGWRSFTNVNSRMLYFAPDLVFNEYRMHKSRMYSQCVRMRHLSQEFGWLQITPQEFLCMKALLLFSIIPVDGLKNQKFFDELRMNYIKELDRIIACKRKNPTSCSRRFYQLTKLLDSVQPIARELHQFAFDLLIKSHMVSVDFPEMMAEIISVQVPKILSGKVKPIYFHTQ
# Description: (§1) Degradation of Androgen Receptor (AR) protein in human prostate cancer cell lines (MDA-PCa-2b (AR T878A/L702H), LNCaP (AR T878A), VCaP (AR wild type and amplified) 22RV1 (AR H875Y) and PC3 (AR negative control)) treated with AR PROTACs was quantified using immunofluorescence. Prostate cancer cells were plated (MDA-PCa-2b, and VCaP 16,000 cells/well; LNCaP and 22RV1 32,000 cells/well, and PC3 8,000 cells/well) in an optical bottom 96-well cell culture plate and allowed to attach overnight. The prostate cancer cell lines were treated for 16 hours with a 10-point 3-fold dilution series (dose range=0.02 nM to 333 nM). PC3 is included as an AR negative control and not treated with compound. Cells are fixed and permeabilized with 4% formaldehyde, blocked with 10% goat serum in immunofluorescence (IF) buffer (130 mM NaCl, 7 mM Na2HPO4, 3.5 mM NaH2PO4, 7.7 mM NaN3, 0.1% BSA, 0.2% Triton X, 0.05% Tween 20) prior to overnight incubation with rabbit antibody specific for C terminus of AR (commercially available from RevMaB Biosciences). Following washes with IF buffer, cells were incubated with fluorescent secondary antibody (Goat anti-rabbit Alexa 647; commercially available from Invitrogen) and Hoechst nuclear stain (commercially available from Themo Scientific) prior to quantification of nuclear AR levels via Opera Phenix high-content fluorescent imager using a 40× water objective. Image analysis was performed with Harmony software.
# (§2) The averaged nuclear Alexa 647 median fluorescence intensity (MFI) of PC3 cells is subtracted from the nuclear Alexa 647 MFI of PROTAC treated and DMSO control treated cells. % AR remaining is calculated for PROTAC treatments as a percent of the DMSO control (MFI PROTAC treated/MFI DMSO control treated)*100). DC50 and the Dmax values, were obtained from these normalised values fitted with a 4-parameter sigmoidal response curve (Xlfit software). The DC50 is the interpolated concentration of PROTAC corresponding to 50% of the protein being degraded, and the Dmax parameter is the maximum experimentally observed degradation.
# [3] = target: T2, Androgen Receptor, VCaP (AR wild type and amplified) (Homo sapiens, UniProt P10275); assay: Androgen Receptor Degradation-Imaging Assay, VCaP cell line; assay type: cell-based; details: 16 hours treatment, maximum observed degradation
# T2 construct: endogenous in cells; host or cells: VCaP
# T2 sequence (P10275 1-920): T1 sequence (P10275 1-920 T878A) with A878T
# Description: as §1, §2
# [4] = target: T3, Androgen Receptor, MDA-PCa-2b (AR T878A/L702H) (Homo sapiens, UniProt P10275, L702H/T878A); assay: Androgen Receptor Degradation-Imaging Assay, MDA-PCa-2b cell line; assay type: cell-based; details: 16 hours treatment, maximum observed degradation
# T3 construct: host or cells: MDA-PCa-2b
# T3 sequence (P10275 1-920 L702H/T878A): T1 sequence (P10275 1-920 T878A) with L702H
# Description: as §1, §2
# [5] = 30 mg/kg in 1% methylcellulose (aq.), male Wistar Han rat, 30 mg/kg
# [6] = 35 mg/kg in 100% PEG400, male Wistar Han rat, 35 mg/kg
"AUC0-t [1, 5] [ng·h/mL]","Cmax [1, 5] [ng/mL]","Dose Normalised AUC0-t [1, 5]","Tmax [1, 5] [h]","*Estimated Bioavailability ([1]; 30 mg/kg in 1% methylcellulose (aq.), rat) [%]","AUC0-t [1, 6] [ng·h/mL]","Cmax [1, 6] [ng/mL]","Dose Normalised AUC0-t [1, 6]","Tmax [1, 6] [h]","*Estimated Bioavailability ([1]; 35 mg/kg in 100% PEG400, rat) [%]",Dmax [2] [%],Dmax [3] [%],Dmax [4] [%],Structure (SMILES)
4380 ± 1450,185 ± 76,148 ± 49 (ng · h/mL)/(mg/kg,7.3 ± 1.2,16,10700 ± 3370,420 ± 123,309 ± 98 (ng · h/mL)/(mg/kg,9.3 ± 2.3,33,,,,"COc1cc(O[C@H]2C(C)(C)[C@H](NC(=O)c3ccc(N4CCC(CN5CCC(n6ncc7c(N8CCC(=O)NC8=O)nccc76)CC5)CC4)c(F)c3)C2(C)C)ccc1C#N [Crystalline API, N-((1r,3r)-3-(4-cyano-3-methoxyphenoxy)-2,2,4,4-tetramethylcyclobutyl)-4-(4-((4-(4-(2,4-dioxotetrahydropyrimidin-1(2H)-yl)-1H-pyrazolo[4,3-c]pyridin-1-yl)piperidin-1-yl)methyl)piperidin-1-yl)-3-fluorobenzamide]"
,,,,,,,,,,≥ 80,≥ 80,≥ 80,"COc1cc(O[C@H]2C(C)(C)[C@H](NC(=O)c3ccc(N4CCC(CN5CCC(n6ccc7c(N8CCC(=O)NC8=O)nccc76)CC5)CC4)c(F)c3)C2(C)C)ccc1C#N [Example 17, N-((1r,3r)-3-(4-Cyano-3-methoxyphenoxy)-2,2,4,4-tetramethylcyclobutyl)-4-(4-((4-(4-(2,4-dioxotetrahydropyrimidin-1(2H)-yl)-1H-pyrrolo[3,2-c]pyridin-1-yl)piperidin-1-yl)methyl)piperidin-1-yl)-3-fluorobenzamide]"

# From patent publication US12577231B2, “Androgen receptor PROTACS” (GlaxoSmithKline Intellectual Property Development Limited, priority 2023, dated 2026)
